Measurements published in patent publication US9149038B2, “4-amino-6-(heterocyclic)picolinates and 6-amino-2-(heterocyclic)pyrimidine-4-carboxylates and their use as herbicides” (Dow AgroSciences LLC, priority 2013, dated 2015).
Read-outs that look alike come from different tables or passages of the source.

Test system: Wheat and Barley and weed species
Experiment: Post-Emergent Test III: postemergent herbicidal activity in wheat and barley, visual rating after 21 d and probit GR20/GR50/GR80/GR90 (Tables 9-13)
Format: in vivo
Conditions: for pest or weed control at 17.5 g/ha / pest or weed control at 35 g/ha / pest or weed control at 70 g/ha: post-emergence, 504 h
From the text: Herbicidal evaluations were made visually on a scale of 0 to 100 where 0 represents no activity and 100 represents complete plant death.
Seeds of the desired test plant species were planted in Sun Gro MetroMix® 306 planting mixture, which typically has a pH of 6.0 to 6.8 and an organic matter content of about 30 percent, in plastic pots with a surface area of 103.2 square centimeters (cm^2). When required to ensure good germination and healthy plants, a fungicide treatment and/or other chemical or physical treatment was applied. The plants were grown for 7-36 days (d) in a greenhouse with an approximate 14 hour (h) photoperiod which was maintained at about 18° C. during the day and 17° C. during the night. Nutrients and water were added on a regular basis and supplemental lighting was provided with overhead metal halide 1000-Watt lamps as necessary. The plants were employed for testing when they reached the second or third true leaf stage.
A weighed amount, determined by the highest rate to be tested, of each test compound was placed in a 25 mL glass vial and was dissolved in 4 mL of a 97:3 v/v mixture of acetone and DMSO to obtain concentrated stock solutions. […] The concentrated stock solutions obtained were diluted with 20 mL of an aqueous mixture containing acetone, water, isopropyl alcohol, DMSO, Agri-Dex crop oil concentrate, and X-77 surfactant in a 48:39:10:1.5:1.5:0.02 v/v ratio to obtain spray solutions containing the highest application rates. Additional application rates were obtained by serial dilution of 12 mL of the high rate solution into a solution containing 2 mL of a 97:3 v/v mixture of acetone and DMSO and 10 mL of an aqueous mixture containing acetone, water, isopropyl alcohol, DMSO, Agri-Dex crop oil concentrate, and X-77 surfactant in a 48:39:10:1.5:1.5:0.02 v/v ratio to obtain ½×, ¼×, ⅛× and 1/16× rates of the high rate. Compound requirements are based upon a 12 mL application volume at a rate of 187 liters per hectare (L/ha). Formulated compounds were applied to the plant material with an overhead Mandel track sprayer equipped with 8002E nozzles calibrated to deliver 187 L/ha over an application area of 0.503 square meters at a spray height of 18 inches (43 cm) above the average plant canopy height. Control plants were sprayed in the same manner with the solvent blank.
The treated plants and control plants were placed in a greenhouse as described above and watered by subirrigation to prevent wash-off of the test compounds. After 21 d, the condition of the test plants as compared with that of the untreated plants was determined visually and scored on a scale of 0 to 100 percent where 0 corresponds to no injury and 100 corresponds to complete kill and are presented as indicated in Table 4.
By applying the well-accepted probit analysis as described by J. Berkson in Journal of the American Statistical Society, 48, 565 (1953) and by D. Finney in “Probit Analysis” Cambridge University Press (1952), herbicidal injury of a specific compound at various rates can be used to calculate GR20, GR50, GR80 and GR90 values, which are defined as growth reduction factors that correspond to the effective dose of herbicide required to provide plant growth reduction (GR) of 20 percent, 50 percent, 80 percent and 90 percent, respectively. Probit analysis was applied to data collected from multiple dose rates of individual compounds utilizing the procedures explained in the following examples. The data for some of the dose rates and analysis of all of the dose rates are captured in the following tables.

## COC(=O)c1nc(-c2ccc(Br)c3c2OC(F)(F)O3)c(F)c(N)c1Cl [Compound 78, Methyl 4-amino-6-(7-bromo-2,2-difluorobenzo[d][1,3]dioxol-4-yl)-3-chloro-5-fluoropicolinate]
CIRAR Canada thistle (Cirsium arvense), 17.5 g ai/ha
  Visual Growth Reduction (%) 21 Days After Application CIRAR: B (85-94)
CIRAR Canada thistle (Cirsium arvense), 35 g ai/ha
  Visual Growth Reduction (%) 21 Days After Application CIRAR: B (85-94)
CIRAR Canada thistle (Cirsium arvense), 70 g ai/ha
  Visual Growth Reduction (%) 21 Days After Application CIRAR: B (85-94)
CIRAR Canada thistle (Cirsium arvense), growth reduction of 50%, probit analysis
  GR50 CIRAR: 2 g ai/ha
CIRAR Canada thistle (Cirsium arvense), growth reduction of 80%, probit analysis
  GR80 CIRAR: 7 g ai/ha
CIRAR Canada thistle (Cirsium arvense), growth reduction of 90%, probit analysis
  GR90 CIRAR: 12 g ai/ha
GALAP cleavers (Galium aparine), 17.5 g ai/ha
  Visual Growth Reduction (%) 21 Days After Application GALAP: D (60-74)
GALAP cleavers (Galium aparine), 35 g ai/ha
  Visual Growth Reduction (%) 21 Days After Application GALAP: D (60-74)
GALAP cleavers (Galium aparine), 70 g ai/ha
  Visual Growth Reduction (%) 21 Days After Application GALAP: D (60-74)
GALAP cleavers (Galium aparine), growth reduction of 50%, probit analysis
  GR50 GALAP: 1 g ai/ha
GALAP cleavers (Galium aparine), growth reduction of 80%, probit analysis
  GR80 GALAP: >140 g ai/ha
GALAP cleavers (Galium aparine), growth reduction of 90%, probit analysis
  GR90 GALAP: >140 g ai/ha
HORVS barley, spring (crop), growth reduction of 20%, probit analysis
  GR20 HORVS: 13 g ai/ha
Hordeum vulgare, HORVS barley, spring (crop), 17.5 g ai/ha, read-out: Visual Growth Reduction (%) 21 Days After Application HORVS
  pest or weed control at 17.5 g/ha: 30 to 44%
Hordeum vulgare, HORVS barley, spring (crop), 35 g ai/ha, read-out: Visual Growth Reduction (%) 21 Days After Application HORVS
  pest or weed control at 35 g/ha: 45 to 59%
Hordeum vulgare, HORVS barley, spring (crop), 70 g ai/ha, read-out: Visual Growth Reduction (%) 21 Days After Application HORVS
  pest or weed control at 70 g/ha: 60 to 74%
KCHSC kochia (Kochia scoparia), 17.5 g ai/ha
  Visual Growth Reduction (%) 21 Days After Application KCHSC: B (85-94)
KCHSC kochia (Kochia scoparia), 35 g ai/ha
  Visual Growth Reduction (%) 21 Days After Application KCHSC: A (95-100)
KCHSC kochia (Kochia scoparia), 70 g ai/ha
  Visual Growth Reduction (%) 21 Days After Application KCHSC: A (95-100)
KCHSC kochia (Kochia scoparia), growth reduction of 50%, probit analysis
  GR50 KCHSC: 2 g ai/ha
KCHSC kochia (Kochia scoparia), growth reduction of 80%, probit analysis
  GR80 KCHSC: 9 g ai/ha
KCHSC kochia (Kochia scoparia), growth reduction of 90%, probit analysis
  GR90 KCHSC: 19 g ai/ha
LAMPU purple deadnettle (Lamium purpureum), 17.5 g ai/ha
  Visual Growth Reduction (%) 21 Days After Application LAMPU: D (60-74)
LAMPU purple deadnettle (Lamium purpureum), 35 g ai/ha
  Visual Growth Reduction (%) 21 Days After Application LAMPU: C (75-84)
LAMPU purple deadnettle (Lamium purpureum), 70 g ai/ha
  Visual Growth Reduction (%) 21 Days After Application LAMPU: B (85-94)
LAMPU purple deadnettle (Lamium purpureum), growth reduction of 50%, probit analysis
  GR50 LAMPU: 2 g ai/ha
LAMPU purple deadnettle (Lamium purpureum), growth reduction of 80%, probit analysis
  GR80 LAMPU: 46 g ai/ha
LAMPU purple deadnettle (Lamium purpureum), growth reduction of 90%, probit analysis
  GR90 LAMPU: >140 g ai/ha
MATCH wild chamomile (Matricaria recutita L.), 17.5 g ai/ha
  Visual Growth Reduction (%) 21 Days After Application MATCH: G (0-29)
MATCH wild chamomile (Matricaria recutita L.), 35 g ai/ha
  Visual Growth Reduction (%) 21 Days After Application MATCH: F (30-44)
MATCH wild chamomile (Matricaria recutita L.), 70 g ai/ha
  Visual Growth Reduction (%) 21 Days After Application MATCH: E (45-59)
MATCH wild chamomile (Matricaria recutita L.), growth reduction of 50%, probit analysis
  GR50 MATCH: 63 g ai/ha
MATCH wild chamomile (Matricaria recutita L.), growth reduction of 80%, probit analysis
  GR80 MATCH: >140 g ai/ha
MATCH wild chamomile (Matricaria recutita L.), growth reduction of 90%, probit analysis
  GR90 MATCH: >140 g ai/ha
PAPRH common poppy (Papaver rhoeas), 17.5 g ai/ha
  Visual Growth Reduction (%) 21 Days After Application PAPRH: F (30-44)
PAPRH common poppy (Papaver rhoeas), 35 g ai/ha
  Visual Growth Reduction (%) 21 Days After Application PAPRH: D (60-74)
PAPRH common poppy (Papaver rhoeas), 70 g ai/ha
  Visual Growth Reduction (%) 21 Days After Application PAPRH: C (75-84)
PAPRH common poppy (Papaver rhoeas), growth reduction of 50%, probit analysis
  GR50 PAPRH: 44 g ai/ha
PAPRH common poppy (Papaver rhoeas), growth reduction of 80%, probit analysis
  GR80 PAPRH: >140 g ai/ha
PAPRH common poppy (Papaver rhoeas), growth reduction of 90%, probit analysis
  GR90 PAPRH: >140 g ai/ha
SASKR Russian thistle (Salsola iberica), 17.5 g ai/ha
  Visual Growth Reduction (%) 21 Days After Application SASKR: B (85-94)
SASKR Russian thistle (Salsola iberica), growth reduction of 50%, probit analysis
  GR50 SASKR: 0.4 g ai/ha
SASKR Russian thistle (Salsola iberica), growth reduction of 80%, probit analysis
  GR80 SASKR: 9 g ai/ha
SASKR Russian thistle (Salsola iberica), growth reduction of 90%, probit analysis
  GR90 SASKR: 42 g ai/ha
SINAR wild mustard (Sinapis arvensis), 17.5 g ai/ha
  Visual Growth Reduction (%) 21 Days After Application SINAR: A (95-100)
SINAR wild mustard (Sinapis arvensis), 35 g ai/ha
  Visual Growth Reduction (%) 21 Days After Application SINAR: A (95-100)
SINAR wild mustard (Sinapis arvensis), 70 g ai/ha
  Visual Growth Reduction (%) 21 Days After Application SINAR: A (95-100)
SINAR wild mustard (Sinapis arvensis), growth reduction of 50%, probit analysis
  GR50 SINAR: 1 g ai/ha
SINAR wild mustard (Sinapis arvensis), growth reduction of 80%, probit analysis
  GR80 SINAR: 3 g ai/ha
SINAR wild mustard (Sinapis arvensis), growth reduction of 90%, probit analysis
  GR90 SINAR: 8 g ai/ha
TRZAS wheat, spring (crop), growth reduction of 20%, probit analysis
  GR20 TRZAS: 20 g ai/ha
Triticum aestivum, TRZAS wheat, spring (crop), 17.5 g ai/ha, read-out: Visual Growth Reduction (%) 21 Days After Application TRZAS
  pest or weed control at 17.5 g/ha: 0 to 29%
Triticum aestivum, TRZAS wheat, spring (crop), 35 g ai/ha, read-out: Visual Growth Reduction (%) 21 Days After Application TRZAS
  pest or weed control at 35 g/ha: 30 to 44%
Triticum aestivum, TRZAS wheat, spring (crop), 70 g ai/ha, read-out: Visual Growth Reduction (%) 21 Days After Application TRZAS
  pest or weed control at 70 g/ha: 45 to 59%
VERPE bird's-eye speedwell (veronica persica), 17.5 g ai/ha
  Visual Growth Reduction (%) 21 Days After Application VERPE: G (0-29)
VERPE bird's-eye speedwell (veronica persica), 35 g ai/ha
  Visual Growth Reduction (%) 21 Days After Application VERPE: D (60-74)
VERPE bird's-eye speedwell (veronica persica), 70 g ai/ha
  Visual Growth Reduction (%) 21 Days After Application VERPE: C (75-84)
VERPE bird's-eye speedwell (veronica persica), growth reduction of 50%, probit analysis
  GR50 VERPE: 33 g ai/ha
VERPE bird's-eye speedwell (veronica persica), growth reduction of 80%, probit analysis
  GR80 VERPE: 77 g ai/ha
VERPE bird's-eye speedwell (veronica persica), growth reduction of 90%, probit analysis
  GR90 VERPE: 119 g ai/ha
VIOTR wild pansy (Viola tricolor), 17.5 g ai/ha
  Visual Growth Reduction (%) 21 Days After Application VIOTR: F (30-44)
VIOTR wild pansy (Viola tricolor), 35 g ai/ha
  Visual Growth Reduction (%) 21 Days After Application VIOTR: F (30-44)
VIOTR wild pansy (Viola tricolor), 70 g ai/ha
  Visual Growth Reduction (%) 21 Days After Application VIOTR: D (60-74)
VIOTR wild pansy (Viola tricolor), growth reduction of 50%, probit analysis
  GR50 VIOTR: 47 g ai/ha
VIOTR wild pansy (Viola tricolor), growth reduction of 80%, probit analysis
  GR80 VIOTR: >140 g ai/ha
VIOTR wild pansy (Viola tricolor), growth reduction of 90%, probit analysis
  GR90 VIOTR: >140 g ai/ha
